Broadly, the IC50 is the concentration at which inhibition is half-maximal. Lower therefore signals inhibition by little substance.

This assay has as its system mutant Huntington (HTT) protein. Put plainly: HTT Mutant HTRF iPSC assay (mHTT protein lowering). The assay is classed as cell-based. The conditions noted are these: human iPSC derived from a HTT patient with a poly-Q49 mutation. A general note: TR-FRET usually uses a lanthanide donor and a delayed reading to cut background.

`Cc1cn2cc(NC(=O)c3cc4ccc(N5CCN(C(C)C)CC5)nc4s3)nc(C)c2n1` [Compound 233, N-(2,8-dimethylimidazo[1,2-a]pyrazin-6-yl)-6-(4-isopropylpiperazin-1-yl)thieno[2,3-b]pyridine-2-carboxamide]: the IC50 is below 100 nM. The same measure for `CNC1CCN(c2ccc3cc(C(=O)Nc4cn5cc(C)nc5c(C)n4)sc3n2)C1` (centres unmarked) [Compound 219, N-(2,8-dimethylimidazo[1,2-a]pyrazin-6-yl)-6-(3-(methylamino)pyrrolidin-1-yl)thieno[2,3-b]pyridine-2-carboxamide]: below 100 nM; for `CCN1CCN(c2cnc3cc(C(=O)Nc4cc5cn(C)nc5cc4OC)sc3n2)CC1` [Compound 247, 3-(4-ethylpiperazin-1-yl)-N-(6-methoxy-2-methyl-2H-indazol-5-yl)thieno[2,3-b]pyrazine-6-carboxamide]: below 100 nM. In the case of `Cc1cn2cc(NC(=O)c3nc4ccc(N(C)C5CC(C)(C)NC(C)(C)C5)nc4s3)cc(F)c2n1` [Compound 113, N-(8-fluoro-2-methylimidazo[1,2-a]pyridin-6-yl)-5-(methyl(2,2,6,6-tetramethylpiperidin-4-yl)amino)thiazolo[5,4-b]pyridine-2-carboxamide], the IC50 is below 100 nM.

For the compound `COc1cc2nn(C)cc2cc1NC(=O)c1nc2ccc(N3CCC4(CN(C)C4)C3)nc2s1` [Compound 88, N-(6-methoxy-2-methyl-2H-indazol-5-yl)-5-(2-methyl-2,6-diazaspiro[3.4]octan-6-yl)thiazolo[5,4-b]pyridine-2-carboxamide], the concentration for half-maximal inhibition (IC50) is below 100 nM. The same measure for `COc1cn2nc(C)cc2cc1NC(=O)c1nc2ccc(N3CCC4(CCCN4C)C3)nc2s1` (centres unmarked) [Compound 116, N-(6-methoxy-2-methylpyrazolo[1,5-a]pyridin-5-yl)-5-(1-methyl-1,7-diazaspiro[4.4]nonan-7-yl)thiazolo[5,4-b]pyridine-2-carboxamide]: 100 to 1000 nM; for `Cc1cn2cc(NC(=O)c3nc4ccc(N5CCC(N6CCC6)C5)nc4s3)cc(F)c2n1` (centres unmarked) [Compound 99, 5-(3-(azetidin-1-yl)pyrrolidin-1-yl)-N-(8-fluoro-2-methylimidazo[1,2-a]pyridin-6-yl)thiazolo[5,4-b]pyridine-2-carboxamide]: below 100 nM. `CNC1CCN(c2ccc3cc(C(=O)Nc4cc(F)c5nc(C)cn5c4)sc3n2)C1` (centres unmarked) [Compound 238, N-(8-fluoro-2-methylimidazo[1,2-a]pyridin-6-yl)-6-(3-(methylamino)pyrrolidin-1-yl)thieno[2,3-b]pyridine-2-carboxamide] returned a half-inhibitory concentration (IC50) below 100 nM.

As to `COc1cc2nn(C)cc2cc1NC(=O)c1nc2ccc(N3C[C@@H]4CN(C)C[C@@H]43)nc2s1` [Compound 90, N-(6-methoxy-2-methyl-2H-indazol-5-yl)-5-((1S,5R)-3-methyl-3,6-diazabicyclo[3.2.0]heptan-6-yl)thiazolo[5,4-b]pyridine-2-carboxamide], the IC50 was below 100 nM.

For the compound `Cc1cn2cc(NC(=O)c3cc4ccc(N5CC(N(C)C)C5)nc4s3)cc(F)c2n1` [Compound 204, 6-(3-(dimethylamino)azetidin-1-yl)-N-(8-fluoro-2-methylimidazo[1,2-a]pyridin-6-yl)thieno[2,3-b]pyridine-2-carboxamide], the half-maximal inhibitory concentration (IC50) is below 100 nM. The same measure for `Cc1cn2cc(NC(=O)c3nc4ccc(N5CCC6(CCN6)C5)nc4s3)cc(F)c2n1` (single isomer, unassigned) [Compound 111]: below 100 nM; for `CN(C)C1CCN(c2ccc3cc(C(=O)Nc4ccc5cncn5c4)sc3n2)C1` (centres unmarked) [Compound 62, 6-(3-(dimethylamino)pyrrolidin-1-yl)-N-(imidazo[1,5-a]pyridin-6-yl)thieno[2,3-b]pyridine-2-carboxamide]: 1000 to 9000 nM. With `Cc1nc(NC(=O)c2cc3ccc(N4C[C@@H]5CN(C)C[C@@H]54)nc3s2)cc2cn(C)nc12` [Compound 229, N-(2,7-dimethyl-2H-pyrazolo[3,4-c]pyridin-5-yl)-6-((1S,5R)-3-methyl-3,6-diazabicyclo[3.2.0]heptan-6-yl)thieno[2,3-b]pyridine-2-carboxamide] the figure was below 100 nM. The same measure for `Cc1cn2cc(NC(=O)c3cc4ccc(N5CC[C@@H](N(C)C)C5)nc4s3)cc(F)c2n1` [Compound 10, 6-[(3R)-3-(dimethylamino)pyrrolidin-1-yl]-N-(8-fluoro-2-methyl-imidazo[1,2-a]pyridin-6-yl)thieno[2,3-b]pyridine-2-carboxamide]: below 100 nM; for `Cc1cn2cc(NC(=O)c3cc4ccc(N5CCC6NCC65)nc4s3)cc(F)c2n1` (centres unmarked) [Compound 200, 6-(2,6-diazabicyclo[3.2.0]heptan-2-yl)-N-(8-fluoro-2-methylimidazo[1,2-a]pyridin-6-yl)thieno[2,3-b]pyridine-2-carboxamide]: below 100 nM.

In the case of `Cc1cn2cc(NC(=O)c3cc4ccc(N5CC[C@@H](N(C)C)C5)nc4s3)ncc2n1` [Compound 6, 6-[(3R)-3-(dimethylamino)pyrrolidin-1-yl]-N-(2-methylimidazo[1,2-a]pyrazin-6-yl)thieno[2,3-b]pyridine-2-carboxamide], the IC50 fell in the range of 100 to 1000 nM. With `COc1cc2nn(C)cc2cc1NC(=O)c1nc2ccc(C3CCN(C)C3)nc2s1` (centres unmarked) [Compound 137, N-(6-methoxy-2-methyl-2H-indazol-5-yl)-5-(1-methylpyrrolidin-3-yl)thiazolo[5,4-b]pyridine-2-carboxamide] the figure was below 100 nM; with `[2H]C([2H])([2H])N1CCN(c2ccc3cc(C(=O)Nc4cn5cc(C)nc5c(C)n4)sc3n2)CC1` [Compound 195, N-(2,8-dimethylimidazo[1,2-a]pyrazin-6-yl)-6-(4-(methyl-d3)piperazin-1-yl)thieno[2,3-b]pyridine-2-carboxamide], below 100 nM; with `Cc1cn2cc(NC(=O)c3cc4ccc(C5CCN(C)C5)nc4s3)cc(F)c2n1` (single isomer, unassigned) [Compound 181], below 100 nM. The same measure for `Cc1cn2cc(NC(=O)c3cc4ccc(OC5CCN(C)C5)nc4s3)cc(F)c2n1` (racemic) [Compound 159, N-(8-fluoro-2-methylimidazo[1,2-a]pyridin-6-yl)-6-((1-methylpyrrolidin-3-yl)oxy)thieno[2,3-b]pyridine-2-carboxamide]: below 100 nM. With `CN(C)C1CCN(c2ccc3cc(C(=O)Nc4ccc5nsnc5c4)sc3n2)C1` (centres unmarked) [Compound 63, N-(benzo[c][1,2,5]thiadiazol-5-yl)-6-(3-(dimethylamino)pyrrolidin-1-yl)thieno[2,3-b]pyridine-2-carboxamide] the figure was 1000 to 9000 nM; with `Cc1cn2cc(NC(=O)c3cc4ccc(N5CCC(N6CCC6)C5)nc4s3)nc(C)c2n1` (centres unmarked) [Compound 228, 6-(3-(azetidin-1-yl)pyrrolidin-1-yl)-N-(2,8-dimethylimidazo[1,2-a]pyrazin-6-yl)thieno[2,3-b]pyridine-2-carboxamide], below 100 nM.

`COc1cc2nn(C)cc2cc1NC(=O)c1cc2nc(N3CC[C@@H](N4CCC4)C3)ccc2o1` [Compound 172, (R)-5-(3-(azetidin-1-yl)pyrrolidin-1-yl)-N-(6-methoxy-2-methyl-2H-indazol-5-yl)furo[3,2-b]pyridine-2-carboxamide] showed a half-maximal inhibitory concentration (IC50) of 100 to 1000 nM.

The record behind these values is patent US20260035387A1 (BIOGEN MA INC., priority 2022, published 2026).
